As a reminder, the IC50 is the concentration that inhibits the measured activity by half.

The values that follow come from patent US11464770B2, “Anticancer pharmaceutical composition” (NATIONAL CANCER CENTER, priority 2016, dated 2022).

Where two headings read alike, the source gives them in different places.

The subject of assay [1] is ovarian cancer cell lines. Briefly: Cell based assay, cell viability (CellTiter-Glo), ovarian cancer cell lines. The following applies: Homo sapiens; OVCAR-3 cells. The essentials: (§1)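 Seed cells after trypsin-EDTA treatment, hold 24 h at constant temperature, then add compound to a final 0 to 2 μM. Culture 72 h more and measure viability via ATP detection.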
Background: ATP-based viability assays read luminescence as a measure of living cells.

Assay [2] concerns renal cancer cell lines. Briefly: Cell based assay, cell viability (CellTiter-Glo), renal cancer cell lines. The following applies: Homo sapiens; ACHN cells. In a few lines:
as §1

Assay [3] relates to bladder cancer cell lines. The assay can be described thus: Cell based assay, cell viability (CellTiter-Glo), bladder cancer cell lines. To be noted: 72 hours treatment, 0 to 2 μM, CellTiter-Glo. In a few lines: as §1
In assay [4] the test system is liver cancer cell lines. The assay can be described thus: Cell based assay, cell viability (CellTiter-Glo), liver cancer cell lines. The following applies: Homo sapiens, SK-HEP1; SK-HEP-1 cell line. The essentials:
as §1

Assay [5] relates to RT4: human urinary bladder transitional cell papilloma. Briefly: Cell based assay, cytotoxicity in RT4 papilloma cells (selectivity). To be noted: Homo sapiens, RT-4; RT4 cells.
The subject of assay [6] is neuroblastoma cell lines. The assay can be described thus: Cell based assay, cell viability (CellTiter-Glo), neuroblastoma cell lines. The following applies: Homo sapiens; SH-SY5Y cell line. In a few lines:
as §1

The mark [7] stands for this setting: 253J cells, read-out: IC50, bladder cancer cell line 253J.
Where [8] appears, read: 5637 cells, read-out: IC50, bladder cancer cell line 5637.
Where [9] appears, read: Homo sapiens, T-24, T24 cells, read-out: IC50, bladder cancer cell line T24.
The mark [10] stands for this setting: Homo sapiens, J82 cells, read-out: IC50, bladder cancer cell line J82.
Setting [11] is: MBT-2 cells, read-out: IC50, bladder cancer cell line MBT-2.
Where [12] appears, read: Homo sapiens, UMUC3, UM-UC-3 cells, read-out: IC50, bladder cancer cell line UM-UC-3.
Where [13] appears, read: Homo sapiens, KU-19-19 cells, read-out: IC50, bladder cancer cell line KU-19-19.

Consider `CC(=O)c1c(S(=O)(=O)Cc2ccccc2)nc2c(Br)ccc(Cl)c2c1O` [Compound 54, 1-(2-(benzylsulfonyl)-8-bromo-5-chloro-4-hydroxyquinolin-3-yl)ethan-1-one], for which the IC50 in assay [1], in assay [2], in assay [3] (setting [7]), in assay [3] (setting [8]), in assay [3] (setting [9]) and in assay [3] (setting [10]) was over 2 µM each time. The concentration for half-maximal inhibition (IC50) in assay [3] (setting [11]) was over 2 µM; in assay [4], over 2 µM; in assay [5] it was over 10 µM; in assay [6], over 2 µM.
With `CC(=O)c1c([S+]([O-])Cc2ccccc2C#N)[nH]c2c(Br)ccc(Cl)c2c1=O` (stereo not shown) [Compound 58, 2-(((3-acetyl-8-bromo-5-chloro-4-oxo-1,4-dihydroquinolin-2-yl)sulfinyl)methyl)benzonitrile], the IC50 in assay [1] was 0.7 µM; in assay [2], over 2 µM; in assay [3] (setting [7]), 0.92 µM; in assay [3] (setting [8]), over 2 µM; in assay [3] (setting [9]), 0.82 µM; in assay [3] (setting [10]), over 2 µM. For the same compound, the IC50 in assay [4] was 0.78 µM; in assay [5], over 10 µM; in assay [6], over 2 µM.
For `COCSc1[nH]c2c(Br)ccc(Cl)c2c(=O)c1C(C)=O` [Compound 61, 3-acetyl-8-bromo-5-chloro-2-((methoxymethyl)thio)quinolin-4(1H)-one], the IC50 in assay [1], in assay [2], in assay [3] (setting [7]), in assay [3] (setting [8]), in assay [3] (setting [9]) and in assay [3] (setting [12]) was over 2 µM throughout. For the same compound, the IC50 was over 2 µM in assay [3] (setting [10]); over 2 µM in assay [3] (setting [13]); over 2 µM in assay [3] (setting [11]); over 2 µM in assay [4]; over 10 µM in assay [5]; over 2 µM in assay [6].
Take `CC(=O)c1c(S)[nH]c2c(Br)ccc(Cl)c2c1=O` [Compound 62, 3-acetyl-8-bromo-5-chloro-2-mercaptoquinolin-4(1H)-one]: the IC50 in assay [1], in assay [2], in assay [3] (setting [7]), in assay [3] (setting [8]), in assay [3] (setting [9]) and in assay [3] (setting [12]) was over 2 µM in each case. Also, the IC50 in assay [3] (setting [10]) was over 2 µM; in assay [3] (setting [13]) it was over 2 µM; in assay [3] (setting [11]) it was over 2 µM; in assay [4], over 2 µM; in assay [5], over 10 µM; in assay [6] it was over 2 µM.
For the compound `CC(=O)c1c([S+]([O-])Cc2ccc(C(=O)c3ccccc3)cc2)[nH]c2c(Br)ccc(Cl)c2c1=O` (stereo not shown) [Compound 63, 3-acetyl-2-((4-benzoylbenzyl)sulfinyl)-8-bromo-5-chloroquinolin-4(1H)-one], the IC50 in assay [1], in assay [2], in assay [3] (setting [7]), in assay [3] (setting [8]), in assay [3] (setting [9]) and in assay [3] (setting [10]) was over 2 µM in each case. In addition, the figures for the IC50 in assay [4], in assay [5] and in assay [6] were over 2 µM, over 10 µM and over 2 µM, respectively.
`CC(=O)c1c([S+]([O-])CC#N)[nH]c2c(Br)ccc(Cl)c2c1=O` (stereo not shown) [Compound 65, 2-((3-acetyl-8-bromo-5-chloro-4-oxo-1,4-dihydroquinolin-2-yl)sulfinyl)acetonitrile]: the IC50 in assay [1], in assay [2], in assay [3] (setting [7]), in assay [3] (setting [8]), in assay [3] (setting [9]) and in assay [3] (setting [12]) was over 2 µM throughout. For the same compound, the IC50 is over 2 µM in assay [3] (setting [10]); over 2 µM in assay [3] (setting [13]); over 2 µM in assay [3] (setting [11]); over 2 µM in assay [4]; over 10 µM in assay [5]; over 2 µM in assay [6].
As for `CC(=O)c1c(SCC#N)[nH]c2c(Br)ccc(Cl)c2c1=O` [Compound 66, 2-((3-acetyl-8-bromo-5-chloro-4-oxo-1,4-dihydroquinolin-2-yl)thio)acetonitrile], the IC50 in assay [1], in assay [2], in assay [3] (setting [7]), in assay [3] (setting [8]), in assay [3] (setting [9]) and in assay [3] (setting [12]) was over 2 µM throughout. Also, the IC50 was over 2 µM in assay [3] (setting [10]); over 2 µM in assay [3] (setting [13]); over 2 µM in assay [3] (setting [11]); over 2 µM in assay [4]; over 10 µM in assay [5]; over 2 µM in assay [6].
For `CC(=O)c1c(S/C=C\C(=O)O)[nH]c2c(Br)ccc(Cl)c2c1=O` [Compound 67, (Z)-3-((3-acetyl-8-bromo-5-chloro-4-oxo-1,4-dihydroquinolin-2-yl)thio)acrylic acid], the IC50 in assay [1], in assay [2], in assay [3] (setting [7]), in assay [3] (setting [8]), in assay [3] (setting [9]) and in assay [3] (setting [12]) was over 2 µM each time. In addition, the IC50 is over 2 µM in assay [3] (setting [10]); over 2 µM in assay [3] (setting [13]); over 2 µM in assay [3] (setting [11]); over 2 µM in assay [4]; over 10 µM in assay [5]; over 2 µM in assay [6].
Regarding `CC(=O)c1c([S+]([O-])Cc2ccc(S(F)(F)(F)(F)F)cc2)[nH]c2c(Br)ccc(Cl)c2c1=O` (stereo not shown) [Compound 68, 3-acetyl-8-bromo-5-chloro-2-((4-(pentafluoro-16-sulfanyl)benzyl)sulfinyl)quinolin-4(1H)-one], the IC50 in assay [1] was 1.16 µM; in assay [2], over 2 µM; in assay [3] (setting [7]) it was 0.97 µM; in assay [3] (setting [8]) it was 1.46 µM; in assay [3] (setting [9]), 1.47 µM; in assay [3] (setting [12]) it was 1.11 µM. The IC50 in assay [3] (setting [10]) was 1.49 µM; in assay [3] (setting [13]), 1.25 µM; in assay [3] (setting [11]) it was 1.07 µM; in assay [4], 0.86 µM; in assay [5] it was over 10 µM; in assay [6], over 2 µM.
With `CC(=O)c1c([S+]([O-])Cc2ccc(S(F)(F)(F)(F)F)cc2F)[nH]c2c(Br)ccc(Cl)c2c1=O` (stereo not shown) [Compound 69, 3-acetyl-8-bromo-5-chloro-2-((2-fluoro-4-(pentafluoro-16-sulfanyl)benzyl)sulfinyl)quinolin-4(1H)-one], the half-inhibitory concentration (IC50) in assay [1] is 1.13 µM; in assay [2] it was over 2 µM; in assay [3] (setting [7]), 1.08 µM; in assay [3] (setting [8]), 1.62 µM; in assay [3] (setting [9]) it was 1.5 µM; in assay [3] (setting [12]) it was 1.2 µM. Further, the IC50 was 1.89 µM in assay [3] (setting [10]); 1.5 µM in assay [3] (setting [13]); 1.26 µM in assay [3] (setting [11]); 1.04 µM in assay [4]; over 10 µM in assay [5]; over 2 µM in assay [6].
Regarding `CC(=O)c1c([S+]([O-])Cc2cccc(S(F)(F)(F)(F)F)c2)[nH]c2c(Br)ccc(Cl)c2c1=O` (stereo not shown) [Compound 77, 3-acetyl-8-bromo-5-chloro-2-((3-(pentafluoro--sulfanyl)benzyl)sulfinyl)quinolin-4(1H)-one], the IC50 is 1.13 µM in assay [1]; over 2 µM in assay [2]; 0.9 µM in assay [3] (setting [7]); 1.68 µM in assay [3] (setting [8]); 1.51 µM in assay [3] (setting [9]); 1.62 µM in assay [3] (setting [10]). Besides, the IC50 was 1.09 µM in assay [4], over 10 µM in assay [5] and over 2 µM in assay [6].
Consider `CC(=O)c1c([S+]([O-])Cc2ccc(SC(F)(F)F)cc2)[nH]c2c(Cl)ccc(Cl)c2c1=O` (stereo not shown) [Compound 79, 3-acetyl-5,8-dichloro-2-((4-((trifluoromethyl)thio)benzyl)sulfinyl)quinolin-4(1H)-one], for which the half-inhibitory concentration (IC50) in assay [1], in assay [2], in assay [3] (setting [7]), in assay [3] (setting [8]), in assay [3] (setting [9]) and in assay [3] (setting [10]) was over 2 µM in each case. In addition, the IC50 was over 2 µM in assay [4], over 10 µM in assay [5] and over 2 µM in assay [6].
Turning to `CC(=O)c1c([S+]([O-])Cc2ccc(S(F)(F)(F)(F)F)cc2)[nH]c2c(F)ccc(F)c2c1=O` (stereo not shown) [Compound 80, 3-acetyl-5,8-difluoro-2-((4-(pentafluoro--sulfanyl)benzyl)sulfinyl)quinolin-4(1H)-one], the IC50 in assay [1], in assay [2], in assay [3] (setting [7]), in assay [3] (setting [8]), in assay [3] (setting [9]) and in assay [3] (setting [10]) was over 2 µM throughout. Further, the IC50 in assay [4] is over 2 µM; in assay [5], over 10 µM; in assay [6], over 2 µM.
